According to the supplement of paper PMC10307832:

How the values were obtained:
Assay in all cases: relative viability (nuclei count vs DMSO), 5 days (fraction); higher = more cells survive
[1] = compound: C1=CC2=NC=CN=C2C=C1/C=C/3\C(=O)NC(=O)S3 + Nc1ncn([C@H]2C[C@H](O)[C@@H](CO)O2)c(=O)n1 [Decitabine] (partner 2 µM)
Outline: (§1)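 One day after seeding in 1536-well plates, lung cancer cell lines were dosed by pin tool. Dosing was either single-drug or a fixed anchor-drug dose plus five library-drug doses (not always all listed) in √10 steps. After 5 days, nuclei were stained in one fix-and-stain step and counted on 4× images, and relative viability is the nuclei count of treated wells over that of vehicle wells, given as the median of duplicate plates.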

BGJ398 + AZD7762 = compound: CCN1CCN(c2ccc(Nc3cc(N(C)C(=O)Nc4c(Cl)c(OC)cc(OC)c4Cl)ncn3)cc2)CC1 [BGJ398] + NC(=O)Nc1cc(-c2cccc(F)c2)sc1C(=O)N[C@H]1CCCNC1 [AZD7762] (partner 0.2 µM)
Outline: as §1

BGJ398 + Trametinib = compound: CCN1CCN(c2ccc(Nc3cc(N(C)C(=O)Nc4c(Cl)c(OC)cc(OC)c4Cl)ncn3)cc2)CC1 [BGJ398] + CC(=O)Nc1cccc(-n2c(=O)n(C3CC3)c(=O)c3c(Nc4ccc(I)cc4F)n(C)c(=O)c(C)c32)c1 [Trametinib] (partner 0.02 µM)
Outline: as §1

[2] = compound: C1=CC2=NC=CN=C2C=C1/C=C/3\C(=O)NC(=O)S3 + CS(=O)(=O)N1CCN(Cc2cc3nc(-c4cccc5[nH]ncc45)nc(N4CCOCC4)c3s2)CC1 [Pictilisib] (partner 1 µM)
Outline: as §1

| Cell Line | relative viability ([1]; first compound 0.02 µM) | relative viability ([1]; first compound 0.06325 µM) | relative viability ([1]; first compound 0.2 µM) | relative viability ([1]; first compound 0.6325 µM) | relative viability ([1]; first compound 2 µM) | relative viability (BGJ398 + AZD7762; first compound 0.01 µM) | relative viability (BGJ398 + AZD7762; first compound 0.03162 µM) | relative viability (BGJ398 + AZD7762; first compound 0.1 µM) | relative viability (BGJ398 + AZD7762; first compound 0.3162 µM) | relative viability (BGJ398 + AZD7762; first compound 1 µM) | relative viability (BGJ398 + Trametinib; first compound 0.01 µM) | relative viability (BGJ398 + Trametinib; first compound 0.03162 µM) | relative viability (BGJ398 + Trametinib; first compound 0.1 µM) | relative viability (BGJ398 + Trametinib; first compound 0.3162 µM) | relative viability (BGJ398 + Trametinib; first compound 1 µM) | relative viability ([2]; first compound 0.02 µM) | relative viability ([2]; first compound 0.06325 µM) | relative viability ([2]; first compound 0.2 µM) | relative viability ([2]; first compound 0.6325 µM) | relative viability ([2]; first compound 2 µM) |
| --- | --- | --- | --- | --- | --- | --- | --- | --- | --- | --- | --- | --- | --- | --- | --- | --- | --- | --- | --- | --- |
| 201T | 0.901 | 0.864 | 0.824 | 0.87 | 0.879 | 0.657 | 0.595 | 0.63 | 0.521 | 0.747 | 0.817 | 0.696 | 0.688 | 0.643 | 0.693 | 0.606 | 0.799 | 0.712 | 0.666 | 0.573 |
| A549 | 0.292 | 0.245 | 0.297 | 0.273 | 0.293 | – | – | – | – | – | – | – | – | – | – | 0.518 | 0.646 | 0.453 | 0.555 | 0.464 |
| A-427 | 0.541 | 0.583 | 0.55 | 0.538 | 0.491 | 0.688 | 0.685 | 0.599 | 0.43 | 0.565 | 0.624 | 0.595 | 0.585 | 0.427 | 0.438 | 0.711 | 0.685 | 0.788 | 0.675 | 0.679 |
| ABC-1 | 1.04 | 1.31 | 1.4 | 1.1 | 0.806 | 0.713 | 0.964 | 0.898 | 0.572 | 1.13 | – | – | – | – | – | 0.676 | 0.67 | 0.721 | 0.673 | 0.576 |
| BEN | 0.715 | 0.774 | 0.886 | 0.691 | 0.635 | 0.729 | 0.648 | 0.687 | 0.583 | 0.578 | 0.84 | 1.02 | 1.03 | 0.899 | 0.952 | 0.54 | 0.622 | 0.613 | 0.496 | 0.556 |
| CAL-12T | – | – | – | – | – | 0.656 | 0.664 | 0.698 | 0.636 | 0.625 | 0.302 | 0.428 | 0.315 | 0.404 | 0.308 | 0.341 | 0.444 | 0.716 | 0.39 | 0.64 |
| COR-L23 | 0.481 | 0.466 | 0.445 | 0.414 | 0.369 | – | – | – | – | – | 0.512 | 0.64 | 0.63 | 0.486 | 0.68 | 0.784 | 1.01 | 0.78 | 0.717 | 0.453 |
| COR-L 105 | 0.599 | 0.69 | 0.673 | 0.683 | 0.593 | – | – | – | – | – | 0.423 | 0.431 | 0.444 | 0.399 | 0.431 | 0.396 | 0.435 | 0.377 | 0.398 | 0.337 |
| Calu-6 | – | – | – | – | – | – | – | – | – | – | – | – | – | – | – | 0.923 | 1.15 | 1.04 | 0.989 | 0.973 |
| ChaGo-K-1 | 0.512 | 0.459 | 0.533 | 0.498 | 0.568 | 0.904 | 0.85 | 0.903 | 0.898 | 0.881 | 0.876 | 0.914 | 0.871 | 0.922 | 0.929 | 0.886 | 1.26 | 1.07 | 0.665 | 0.621 |
| EBC-1 | – | – | – | – | – | – | – | – | – | – | – | – | – | – | – | 0.407 | 0.518 | 0.42 | 0.413 | 0.459 |
| EKVX | 0.258 | 0.399 | 0.287 | 0.337 | 0.373 | 0.778 | 0.772 | 0.746 | 0.686 | 0.634 | 0.326 | 0.336 | 0.368 | 0.261 | 0.359 | 0.355 | 0.384 | 0.42 | 0.422 | 0.375 |
| EMC-BAC-2 | 0.933 | 1.01 | 1.05 | 0.922 | 0.808 | 1.09 | 1.18 | 1.14 | 1.12 | 1.04 | 0.919 | 0.912 | 0.929 | 0.78 | 0.854 | 0.431 | 0.552 | 0.563 | 0.482 | 0.463 |
| EPLC-272H | 0.351 | 0.344 | 0.4 | 0.356 | 0.321 | 0.209 | 0.21 | 0.252 | 0.174 | 0.306 | 0.302 | 0.345 | 0.282 | 0.194 | 0.198 | 0.411 | 0.407 | 0.364 | 0.297 | 0.153 |
| H3255 | 0.6 | 0.649 | 0.595 | 0.534 | 0.622 | 0.837 | 0.681 | 1.01 | 0.78 | 0.826 | 0.61 | – | 0.702 | – | 0.707 | 0.537 | 0.55 | 0.464 | 0.503 | 0.426 |
| HARA | 0.537 | 0.587 | 0.498 | 0.614 | 0.63 | 0.429 | 0.418 | 0.461 | 0.373 | 0.334 | 0.778 | 0.41 | 0.43 | 0.604 | 0.437 | 0.44 | 0.485 | 0.365 | 0.348 | 0.31 |
| HCC-15 | 0.625 | 0.686 | 0.717 | 0.561 | 0.553 | 1.15 | 1.06 | 1.24 | 1.17 | 1.39 | 0.331 | 0.401 | 0.378 | 0.433 | 0.393 | 0.765 | 0.787 | 0.86 | 0.665 | 0.754 |
| HCC-44 | 0.872 | 1.07 | 0.942 | 0.961 | 0.843 | 0.98 | 1 | 1.01 | 1.02 | 0.862 | 1.01 | 1.03 | 1.03 | 1.04 | 0.949 | 0.615 | 0.563 | 0.593 | 0.552 | 0.514 |
| HCC-78 | 0.703 | 0.578 | 0.668 | 0.594 | 0.525 | 0.609 | 0.536 | 0.557 | 0.61 | 0.608 | 0.55 | 0.868 | 0.858 | 0.696 | 0.619 | 0.267 | 0.202 | 0.246 | 0.206 | 0.169 |
